Test results reported in patent publication US20170044208A1, “SELECTIVE GLUCOCORTICOID RECEPTOR LIGANDS” (The University of Manchester, priority 2013, published 2017).
pEC50, pIC50: −log10 of the molar value. Where two headings read alike, the source gives them in different places.

Tests used:
NFkB = assay: Transrepression assay (NFκB-LUC reporter in HeLa cells, TNF stimulated); assay type: cell-based; settings: for Emax / pIC50: Homo sapiens, HeLa; for Emax: 16 h, read-out: TR Max %
Experimental: HeLa cells were seeded at 80×10^4 cells/dish in 100 mm dishes. Cells were transfected the next day with NFκB-LUC reporter (5 μg) and pGL4-hRLuc (0.1 μg), in 0.25 mL of Opti-MEM I using FuGENE HD (15 μL). After 24 hours, cells were trypsinized and seeded in to 24-well plates at a density of 8-10×10^4 cells/mL. Following overnight incubation, cells were starved for a further 24 hours in DMEM.
On the day of the experiment, compounds were added to cells one hour prior to the addition of […] (0.5 ng/mL). After a further 16 hours, cells were washed twice with ice-cold PBS, then lysed with 100 μL of 1×PLB.
(§1) Firefly and Renilla luciferase activity was measured using the Dual Luciferase Reporter system following the manufacturer's protocol.
(§2) IC50 and EC50 values were calculated by using GraphPad Prism 5.0. Briefly, luminescence values for luciferase were normalised using the Renilla luminescence values. The normalised values were input into GraphPad Prism 5.0. Non-linear regression analysis was carried out using the “log(concentration) vs. response” equation of the software, with a Hill slope coefficient fixed at 1.
(§3) IC50 and EC50 values are mean values in nM of all IC50/EC50 values for the compound. Max % values are mean values of the Max% activity.

[1] = molecular target: T1, Glucocorticoid Receptor (GR) (Homo sapiens, UniProt P04150); assay: Transactivation assay (MMTV-Luc reporter in HeLa cells); assay type: cell-based; settings: for Emax / pEC50: HeLa; for Emax: 16 h, read-out: TA Max %; for pEC50: concentration for half-maximal transactivation, MMTV-Luc, 16 hours, mean, read-out: TA EC50
T1 construct: Cells were transfected the next day with MMTV-Luc (5 μg) and pGL4-hRLuc (0.1 μg); endogenous in cells; host or cells: HeLa
T1 sequence (P04150 1-777): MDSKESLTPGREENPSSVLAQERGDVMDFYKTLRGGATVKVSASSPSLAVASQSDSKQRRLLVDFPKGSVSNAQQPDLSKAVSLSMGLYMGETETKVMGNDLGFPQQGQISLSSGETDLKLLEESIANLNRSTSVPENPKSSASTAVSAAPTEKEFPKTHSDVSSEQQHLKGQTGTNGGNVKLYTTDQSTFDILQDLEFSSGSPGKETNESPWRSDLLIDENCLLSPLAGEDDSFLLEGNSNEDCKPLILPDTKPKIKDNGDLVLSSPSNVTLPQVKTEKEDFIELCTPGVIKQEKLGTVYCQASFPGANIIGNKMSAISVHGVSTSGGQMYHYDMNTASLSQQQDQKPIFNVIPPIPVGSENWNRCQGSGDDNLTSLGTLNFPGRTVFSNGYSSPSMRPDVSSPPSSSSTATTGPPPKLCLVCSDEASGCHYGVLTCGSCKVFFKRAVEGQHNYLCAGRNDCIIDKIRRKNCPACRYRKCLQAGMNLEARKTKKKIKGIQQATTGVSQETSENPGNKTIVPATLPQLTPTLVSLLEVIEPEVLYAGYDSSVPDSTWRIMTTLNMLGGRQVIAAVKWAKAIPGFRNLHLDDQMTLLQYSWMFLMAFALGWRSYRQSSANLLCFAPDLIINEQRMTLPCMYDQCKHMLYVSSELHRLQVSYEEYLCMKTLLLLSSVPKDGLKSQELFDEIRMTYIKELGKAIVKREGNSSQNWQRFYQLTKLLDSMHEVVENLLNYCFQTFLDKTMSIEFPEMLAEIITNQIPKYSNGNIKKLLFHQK
Experimental: HeLa cells were seeded at 80×10^4 cells/dish in 100 mm dishes. Cells were transfected the next day with MMTV-Luc (5 μg) and pGL4-hRLuc (0.1 μg), in 250 μL of Opti-MEM I using FuGENE HD (15 μL). After 24 hours, cells were trypsinized and seeded into 96-well plates at a density of 8-10×10^4 cells/mL.
Following overnight incubation to allow attachment, cells were treated with the required concentration of compounds, then further incubated for 16 hours. Media was aspirated and cells lysed in 40 μL of 1×PLB.
as §1, §2, §3

[2] = concentration for half-maximal repression of NFkB, TNF 0.5 ng/mL, 16 hours, mean, read-out: TR IC50

Compound | Emax (NFkB) [%] | pIC50 (NFkB; [2]) | Emax [1] [%] | pEC50 [1] | pIC50 (NFkB; comparison table, half-maximal repression of NFkB, multiple experiments, read-out: IC50) | TR % (NFkB; comparison table, maximal NFkB repression compared to Dexamethasone) [%] | TA % ([1]; comparison table, against maximal activation seen with dexamethasone) [%]
C[C@@H]1C[C@H]2[C@@H]3CCC4=CC(=O)C=C[C@]4(C)[C@@]3(F)[C@@H](O)C[C@]2(C)[C@@]1(O)c1csc(NC(=O)c2ccccc2F)n1 [Compound 28] | 36 | 6.92 | 0 | 4.53 | – | – | –
COc1cccc(C(=O)Nc2nc([C@@]3(O)[C@H](C)C[C@H]4[C@@H]5CCC6=CC(=O)C=C[C@]6(C)[C@@]5(F)[C@@H](O)C[C@@]43C)cs2)c1 [Compound 29] | 44.2 | 8.10 | 0.67 | 4.71 | – | – | –
C[C@@H]1C[C@H]2[C@@H]3CCC4=CC(=O)C=C[C@]4(C)[C@@]3(F)[C@@H](O)C[C@]2(C)[C@@]1(O)c1csc(NC(=O)c2ccc(C(F)(F)F)cc2)n1 [Compound 30] | 41.3 | 7.45 | 7.43 | 5.85 | – | – | –
C[C@@H]1C[C@H]2[C@@H]3CCC4=CC(=O)C=C[C@]4(C)[C@@]3(F)[C@@H](O)C[C@]2(C)[C@@]1(O)c1csc(NC(=O)c2ccncc2)n1 [Compound 31] | 37.5 | 7.95 | 0 | – | – | – | –
C[C@@H]1C[C@H]2[C@@H]3CCC4=CC(=O)C=C[C@]4(C)[C@@]3(F)[C@@H](O)C[C@]2(C)[C@@]1(O)c1csc(NC(=O)c2cccnc2)n1 [Compound 32] | 28.5 | 7.26 | 0.03 | 5.65 | – | – | –
C[C@@H]1C[C@H]2[C@@H]3CCC4=CC(=O)C=C[C@]4(C)[C@@]3(F)[C@@H](O)C[C@]2(C)[C@@]1(O)c1csc(NC(=O)c2ncco2)n1 [Compound 33] | 32.7 | 7.17 | 0 | – | – | – | –
COc1ccc(C(=O)Nc2nc([C@@]3(O)[C@H](C)C[C@H]4[C@@H]5CCC6=CC(=O)C=C[C@]6(C)[C@@]5(F)[C@@H](O)C[C@@]43C)cs2)cc1 [Compound 34] | 51.8 | 8.32 | 0 | 4.76 | – | – | –
C[C@@H]1C[C@H]2[C@@H]3CCC4=CC(=O)C=C[C@]4(C)[C@@]3(F)[C@@H](O)C[C@]2(C)[C@@]1(O)c1csc(NC(=O)c2cncs2)n1 [Compound 35] | 35.9 | 7.35 | 0.23 | 5.38 | – | – | –
C[C@@H]1C[C@H]2[C@@H]3CCC4=CC(=O)C=C[C@]4(C)[C@@]3(F)[C@@H](O)C[C@]2(C)[C@@]1(O)c1csc(NC(=O)c2cscn2)n1 [Compound 36] | 33.6 | 7.97 | 1.19 | 5.26 | – | – | –
C[C@@H]1C[C@H]2[C@@H]3CCC4=CC(=O)C=C[C@]4(C)[C@@]3(F)[C@@H](O)C[C@]2(C)[C@@]1(O)c1csc(NC(=O)c2ccc[nH]2)n1 [Compound 37] | 31.4 | 7.75 | 3.22 | 5.56 | – | – | –
C[C@@H]1C[C@H]2[C@@H]3CCC4=CC(=O)C=C[C@]4(C)[C@@]3(F)[C@@H](O)C[C@]2(C)[C@@]1(O)c1csc(NC(=O)CCc2ccc(F)cc2)n1 [Compound 38] | 65.5 | 7.51 | 2.48 | 4.61 | – | – | –
C[C@@H]1C[C@H]2[C@@H]3CCC4=CC(=O)C=C[C@]4(C)[C@@]3(F)[C@@H](O)C[C@]2(C)[C@@]1(O)c1csc(NC(=O)c2ccc3ncsc3c2)n1 [Compound 39] | 19 | 8.08 | 0.96 | 5.94 | – | – | –
C[C@@H]1C[C@H]2[C@@H]3CCC4=CC(=O)C=C[C@]4(C)[C@@]3(F)[C@@H](O)C[C@]2(C)[C@@]1(O)c1csc(NC(=O)c2ccccn2)n1 [Compound 40] | 19 | 8.08 | 1.34 | 4.77 | – | – | –
C[C@@H]1C[C@H]2[C@@H]3CCC4=CC(=O)C=C[C@]4(C)[C@@]3(F)[C@@H](O)C[C@]2(C)[C@@]1(O)c1csc(NC(=O)c2cnco2)n1 [Compound 41] | 26 | 7.38 | 1.27 | 4.99 | – | – | –
COc1ccc(CNc2nc([C@@]3(O)[C@H](C)C[C@H]4[C@@H]5CCC6=CC(=O)C=C[C@]6(C)[C@@]5(F)[C@@H](O)C[C@@]43C)cs2)cc1 [Compound 42] | 51.1 | 6.70 | 0.56 | 6.41 | – | – | –
C[C@@H]1C[C@H]2[C@@H]3CCC4=CC(=O)C=C[C@]4(C)[C@@]3(F)[C@@H](O)C[C@]2(C)[C@@]1(O)c1csc(N(C)C(=O)c2ccc(F)cc2)n1 [Compound 43] | 61 | 6.81 | 1.63 | 4.06 | – | – | –
C[C@@H]1C[C@H]2[C@@H]3CCC4=CC(=O)C=C[C@]4(C)[C@@]3(F)[C@@H](O)C[C@]2(C)[C@@]1(O)c1csc(NC(=O)c2ccc(F)c(F)c2)n1 [Compound 44] | 41.8 | 7.54 | 14.6 | 6.04 | – | – | –
Cc1ccc(C(=O)Nc2nc([C@@]3(O)[C@H](C)C[C@H]4[C@@H]5CCC6=CC(=O)C=C[C@]6(C)[C@@]5(F)[C@@H](O)C[C@@]43C)cs2)cc1 [Compound 45] | 42.3 | 7.69 | 5.74 | 5.07 | – | – | –
CCOc1ccc(C(=O)Nc2nc([C@@]3(O)[C@H](C)C[C@H]4[C@@H]5CCC6=CC(=O)C=C[C@]6(C)[C@@]5(F)[C@@H](O)C[C@@]43C)cs2)cc1 [Compound 46] | 55.1 | 7.57 | 9.95 | 5.18 | – | – | –
C[C@@H]1C[C@H]2[C@@H]3CCC4=CC(=O)C=C[C@]4(C)[C@@]3(F)[C@@H](O)C[C@]2(C)[C@@]1(O)c1csc(NC(=O)c2ccc(F)nc2)n1 [Compound 47] | 48 | 7.64 | 7.41 | 6.17 | – | – | –
C[C@@H]1C[C@H]2[C@@H]3CCC4=CC(=O)C=C[C@]4(C)[C@@]3(F)[C@@H](O)C[C@]2(C)[C@@]1(O)C(=O)CO [Dex, dexamethasone, reference compound] | – | – | – | – | 8.54 | 100 | 100
